Source: patent publication US12122761B2, “2-azaspiro[3.4]octane derivatives as M4 agonists” (NOVARTIS AG, priority 2019, dated 2024)

Biological target: T1, human cloned CHRM3 receptor (M3_CHO cells) (Homo sapiens, UniProt P20309)
T1 construct: expressed in transfected cells; host or cells: CHO-K1
Assay: CHRM3 Ca++ Flux Assay (agonist mode, FDSS 7000EX)
Assay type: cell-based
Settings: for Emax: Percent Activity measured to EC100 of Carbachol, read-out: M3 FDSS PA; for EC50: agonist mode, geometric mean if tested more than once, read-out: M3 FDSS EC50
How it was run: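 CHO-K1 cells stably expressing human M3 or M5 receptor were dye-loaded for at least 1 h in HBSS with 20 mM HEPES and 2.5 mM probenecid, then given 11-point compound doses in triplicate.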

T1 sequence (P20309 whole entry): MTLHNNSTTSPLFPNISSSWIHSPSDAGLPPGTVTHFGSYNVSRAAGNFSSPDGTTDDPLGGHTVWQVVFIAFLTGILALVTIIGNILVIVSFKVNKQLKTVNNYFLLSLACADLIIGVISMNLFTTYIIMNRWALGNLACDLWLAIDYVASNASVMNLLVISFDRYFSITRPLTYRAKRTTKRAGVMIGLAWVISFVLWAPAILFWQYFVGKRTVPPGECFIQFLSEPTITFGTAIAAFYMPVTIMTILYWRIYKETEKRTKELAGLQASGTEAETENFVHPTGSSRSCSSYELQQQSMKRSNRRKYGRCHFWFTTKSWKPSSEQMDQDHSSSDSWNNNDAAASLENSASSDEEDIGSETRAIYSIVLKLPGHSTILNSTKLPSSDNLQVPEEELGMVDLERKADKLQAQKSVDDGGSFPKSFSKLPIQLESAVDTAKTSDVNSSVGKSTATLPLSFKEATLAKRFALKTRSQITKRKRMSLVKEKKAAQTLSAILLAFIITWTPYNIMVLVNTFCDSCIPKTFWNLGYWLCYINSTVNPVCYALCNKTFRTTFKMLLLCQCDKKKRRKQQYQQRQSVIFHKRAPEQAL

Which results are given for c1ccc(C2CCN([C@@H]3CCC4(C3)CN(c3nnco3)C4)CC2)c(OCC2CCOCC2)c1 [Example 2G, (R)-2-(6-(4-(2-((tetrahydro-2H-pyran-4-yl)methoxy)phenyl)piperidin-1-yl)-2-azaspiro[3.4]octan-2-yl)-1,3,4-oxadiazole]?
Emax: 0%; EC50: > 25 µM

What does the source list for c1ccc(C2CCN([C@@H]3CCC4(C3)CN(c3nnco3)C4)CC2)c(C2CCOCC2)c1 [Example 2H, (R)-2-(6-(4-(2-(tetrahydro-2H-pyran-4-yl)phenyl)piperidin-1-yl)-2-azaspiro[3.4]octan-2-yl)-1,3,4-oxadiazole]?
Emax: 0%; EC50: > 25 µM

What does the source list for Fc1ccc(C2CCOCC2)c(C2CCN([C@@H]3CCC4(C3)CN(c3nnco3)C4)CC2)c1 [Example 2I, (R)-2-(6-(4-(5-fluoro-2-(tetrahydro-2H-pyran-4-yl)phenyl)piperidin-1-yl)-2-azaspiro[3.4]octan-2-yl)-1,3,4-oxadiazole]?
Emax: 0%; EC50: > 25 µM

With c1ccc(C2CCOC2)c(C2CCN([C@@H]3CCC4(C3)CN(c3nnco3)C4)CC2)c1 (stereo partly drawn) [Example 2K, 2-((6R)-6-(4-(2-(tetrahydrofuran-3-yl)phenyl)piperidin-1-yl)-2-azaspiro[3.4]octan-2-yl)-1,3,4-oxadiazole] as the compound, how does the Emax read?
Its Emax is 0%.

What about the EC50 of the same compound?
Its EC50 is greater than 25 µM.

c1ccc(C2CCN([C@@H]3CCC4(C3)CN(c3nnco3)C4)CC2)c(CC2CCOCC2)c1 [Example 2L, (R)-2-(6-(4-(2-((tetrahydro-2H-pyran-4-yl)methyl)phenyl)piperidin-1-yl)-2-azaspiro[3.4]octan-2-yl)-1,3,4-oxadiazole] was tested. Which Emax did it give?
Its Emax is 0%.

What about the EC50 of the same compound?
The EC50 was greater than 25 µM.

What does the source list for c1ccc(C2CCN([C@@H]3CCC4(C3)CN(c3nnco3)C4)CC2)c(-c2ncco2)c1 [Example 2M, (R)-2-(6-(4-(2-(oxazol-2-yl)phenyl)piperidin-1-yl)-2-azaspiro[3.4]octan-2-yl)-1,3,4-oxadiazole]?
Emax: 0%; EC50: > 25 µM

What does the source list for c1ccc(C2CCN([C@@H]3CCC4(C3)CN(c3nncs3)C4)CC2)c(OC2COC2)c1 [Example 3A, (R)-2-(6-(4-(2-(oxetan-3-yloxy)phenyl)piperidin-1-yl)-2-azaspiro[3.4]octan-2-yl)-1,3,4-thiadiazole]?
Emax: 0%; EC50: > 25 µM

For c1ccc(C2CCN([C@@H]3CCC4(C3)CN(c3nncs3)C4)CC2)c(OC[C@H]2COCCO2)c1 [Example 3B, 2-((R)-6-(4-(2-(((R)-1,4-dioxan-2-yl)methoxy)phenyl)piperidin-1-yl)-2-azaspiro[3.4]octan-2-yl)-1,3,4-thiadiazole], which Emax is on record?
The Emax was 0%.

And the EC50?
Its EC50 is greater than 25 µM.

For c1ccc(C2CCN([C@@H]3CCC4(C3)CN(c3nncs3)C4)CC2)c(OC[C@@H]2COCCO2)c1 [Example 3C, 2-((R)-6-(4-(2-(((S)-1,4-dioxan-2-yl)methoxy)phenyl)piperidin-1-yl)-2-azaspiro[3.4]octan-2-yl)-1,3,4-thiadiazole], which Emax is on record?
The Emax was 0%.

And the EC50?
The EC50 was greater than 25 µM.

How did the Emax turn out when COc1ccccc1C1CCN([C@@H]2CCC3(C2)CN(c2nncs2)C3)CC1 [Example 3D, (R)-2-(6-(4-(2-methoxyphenyl)piperidin-1-yl)-2-azaspiro[3.4]octan-2-yl)-1,3,4-thiadiazole] was run?
The Emax was 0%.

And the EC50?
The EC50 was greater than 25 µM.

Which Emax does the source give for Fc1cccc(C2CCN([C@@H]3CCC4(C3)CN(c3nncs3)C4)CC2)c1OC1COC1 [Example 3E, (R)-2-(6-(4-(3-fluoro-2-(oxetan-3-yloxy)phenyl)piperidin-1-yl)-2-azaspiro[3.4]octan-2-yl)-1,3,4-thiadiazole] here?
Its Emax is 0%.

What about the EC50 of the same compound?
The EC50 was greater than 25 µM.

How did the Emax turn out when COCCOc1ccccc1C1CCN([C@@H]2CCC3(C2)CN(c2nncs2)C3)CC1 [Example 3F, (R)-2-(6-(4-(2-(2-methoxyethoxy)phenyl)piperidin-1-yl)-2-azaspiro[3.4]octan-2-yl)-1,3,4-thiadiazole] was run?
The Emax was 0%.

And the EC50?
The EC50 was greater than 25 µM.

CC(C)(O)COc1ccccc1C1CCN([C@@H]2CCC3(C2)CN(c2nncs2)C3)CC1 [Example 3G, (R)-1-(2-(1-(2-(1,3,4-thiadiazol-2-yl)-2-azaspiro[3.4]octan-6-yl)piperidin-4-yl)phenoxy)-2-methylpropan-2-ol] was tested. Which Emax did it give?
Its Emax is 0%.

What about the EC50 of the same compound?
Its EC50 is greater than 25 µM.

Which Emax does the source give for CC(C)(O)CCOc1ccccc1C1CCN([C@@H]2CCC3(C2)CN(c2nncs2)C3)CC1 [Example 3H, (R)-4-(2-(1-(2-(1,3,4-thiadiazol-2-yl)-2-azaspiro[3.4]octan-6-yl)piperidin-4-yl)phenoxy)-2-methylbutan-2-ol] here?
Its Emax is 0%.

And the EC50?
The EC50 was greater than 25 µM.

For COc1ccccc1C1CCN([C@@H]2CCC3(C2)CN(c2ccns2)C3)CC1 [Example 3I, (R)-5-(6-(4-(2-methoxyphenyl)piperidin-1-yl)-2-azaspiro[3.4]octan-2-yl)isothiazole], which Emax is on record?
The Emax was 0%.

What about the EC50 of the same compound?
The EC50 was greater than 25 µM.

How did the Emax turn out when COCCOc1ccccc1C1CCN([C@@H]2CCC3(C2)CN(c2ncns2)C3)CC1 [Example 3J, (R)-5-(6-(4-(2-(2-methoxyethoxy)phenyl)piperidin-1-yl)-2-azaspiro[3.4]octan-2-yl)-1,2,4-thiadiazole] was run?
The Emax was 0%.

What about the EC50 of the same compound?
The EC50 was greater than 25 µM.

Which Emax does the source give for CC(C)(O)COc1ccccc1C1CCN([C@@H]2CCC3(C2)CN(c2ncns2)C3)CC1 [Example 3K, (R)-1-(2-(1-(2-(1,2,4-thiadiazol-5-yl)-2-azaspiro[3.4]octan-6-yl)piperidin-4-yl)phenoxy)-2-methylpropan-2-ol] here?
The Emax was 0%.

What about the EC50 of the same compound?
The EC50 was greater than 25 µM.

CC(C)(O)CCOc1ccccc1C1CCN([C@@H]2CCC3(C2)CN(c2ncns2)C3)CC1 [Example 3L, (R)-4-(2-(1-(2-(1,2,4-thiadiazol-5-yl)-2-azaspiro[3.4]octan-6-yl)piperidin-4-yl)phenoxy)-2-methylbutan-2-ol] was tested. Which Emax did it give?
Its Emax is 0%.

And the EC50?
Its EC50 is greater than 25 µM.

What does the source list for COc1ccccc1C1CCN([C@@H]2CCC3(C2)CN(c2nc(C)ns2)C3)CC1 [Example 3M, (R)-5-(6-(4-(2-methoxyphenyl)piperidin-1-yl)-2-azaspiro[3.4]octan-2-yl)-3-methyl-1,2,4-thiadiazole]?
Emax: 0%; EC50: > 25 µM

With Fc1cncc(N2CC3(CC[C@@H](N4CCC(c5ccccc5C5CCOCC5)CC4)C3)C2)c1 [Example 5AA, (R)-2-(5-fluoropyridin-3-yl)-6-(4-(2-(tetrahydro-2H-pyran-4-yl)phenyl)piperidin-1-yl)-2-azaspiro[3.4]octane] as the compound, how does the Emax read?
The Emax was 0%.

What about the EC50 of the same compound?
The EC50 was greater than 25 µM.

What does the source list for c1ccc(C2CCN([C@@H]3CCC4(C3)CN(c3cncnc3)C4)CC2)c(C2CCOCC2)c1 [Example 5BB, (R)-2-(pyrimidin-5-yl)-6-(4-(2-(tetrahydro-2H-pyran-4-yl)phenyl)piperidin-1-yl)-2-azaspiro[3.4]octane]?
Emax: 0%; EC50: > 25 µM

With Fc1ccc(N2CC3(CC[C@@H](N4CCC(c5ccccc5C5CCOCC5)CC4)C3)C2)cn1 [Example 5CC, (R)-2-(6-fluoropyridin-3-yl)-6-(4-(2-(tetrahydro-2H-pyran-4-yl)phenyl)piperidin-1-yl)-2-azaspiro[3.4]octane] as the compound, how does the Emax read?
Its Emax is 0%.

What about the EC50 of the same compound?
The EC50 was greater than 25 µM.

With COc1ccccc1C1CCN([C@@H]2CCC3(C2)CN(c2cnc(C)cn2)C3)CC1 [Example 5DD, (R)-6-(4-(2-methoxyphenyl)piperidin-1-yl)-2-(5-methylpyrazin-2-yl)-2-azaspiro[3.4]octane] as the compound, how does the Emax read?
The Emax was 0%.

And the EC50?
The EC50 was greater than 25 µM.

For Cc1nccnc1N1CC2(CC[C@@H](N3CCC(c4ccccc4OCC(C)(C)O)CC3)C2)C1 [Example 5T, (R)-2-methyl-1-(2-(1-(2-(3-methylpyrazin-2-yl)-2-azaspiro[3.4]octan-6-yl)piperidin-4-yl)phenoxy)propan-2-ol], which Emax is on record?
The Emax was 0%.

What about the EC50 of the same compound?
The EC50 was greater than 25 µM.

How did the Emax turn out when CC(C)(O)COc1ccccc1C1CCN([C@@H]2CCC3(C2)CN(c2ncncn2)C3)CC1 [Example 5U, (R)-1-(2-(1-(2-(1,3,5-triazin-2-yl)-2-azaspiro[3.4]octan-6-yl)piperidin-4-yl)phenoxy)-2-methylpropan-2-ol] was run?
Its Emax is 0%.

And the EC50?
The EC50 was greater than 25 µM.

How did the Emax turn out when COc1ccc(F)cc1C1CCN([C@@H]2CCC3(C2)CN(c2ccnnc2)C3)CC1 [Example 5V, (R)-6-(4-(5-fluoro-2-methoxyphenyl)piperidin-1-yl)-2-(pyridazin-4-yl)-2-azaspiro[3.4]octane] was run?
The Emax was 0%.

And the EC50?
The EC50 was greater than 25 µM.

What does the source list for Fc1cccc(C2CCN([C@@H]3CCC4(C3)CN(c3cncnc3)C4)CC2)c1OC1COC1 [Example 5W, (R)-6-(4-(3-fluoro-2-(oxetan-3-yloxy)phenyl)piperidin-1-yl)-2-(pyrimidin-5-yl)-2-azaspiro[3.4]octane]?
Emax: 0%; EC50: > 25 µM

With COCCOc1ccccc1C1CCN([C@@H]2CCC3(C2)CN(c2cccnn2)C3)CC1 [Example 5X, (R)-6-(4-(2-(2-methoxyethoxy)phenyl)piperidin-1-yl)-2-(pyridazin-3-yl)-2-azaspiro[3.4]octane] as the compound, how does the Emax read?
The Emax was 0%.

And the EC50?
The EC50 was greater than 25 µM.

How did the Emax turn out when COCCOc1ccccc1C1CCN([C@@H]2CCC3(C2)CN(c2cnc(C)cn2)C3)CC1 [Example 5Y, (R)-6-(4-(2-(2-methoxyethoxy)phenyl)piperidin-1-yl)-2-(5-methylpyrazin-2-yl)-2-azaspiro[3.4]octane] was run?
The Emax was 0%.

What about the EC50 of the same compound?
The EC50 was greater than 25 µM.

Which Emax does the source give for COCCOc1ccccc1C1CCN([C@@H]2CCC3(C2)CN(c2ccnnc2)C3)CC1 [Example 5Z, (R)-6-(4-(2-(2-methoxyethoxy)phenyl)piperidin-1-yl)-2-(pyridazin-4-yl)-2-azaspiro[3.4]octane] here?
Its Emax is 0%.

What about the EC50 of the same compound?
The EC50 was greater than 25 µM.

COc1ccc(F)cc1C1CCN([C@@H]2CCC3(C2)CN(C(=O)C2COC2)C3)CC1 [Example 6A, (R)-(6-(4-(5-fluoro-2-methoxyphenyl)piperidin-1-yl)-2-azaspiro[3.4]octan-2-yl)(oxetan-3-yl)methanone] was tested. Which Emax did it give?
Its Emax is 0%.

How did the Emax turn out when O=C(C1COC1)N1CC2(CC[C@@H](N3CCC(c4ccc(F)cc4OC(F)F)CC3)C2)C1 [Example 6B, (R)-(6-(4-(2-(difluoromethoxy)-4-fluorophenyl)piperidin-1-yl)-2-azaspiro[3.4]octan-2-yl)(oxetan-3-yl)methanone] was run?
Its Emax is 0%.

What about the EC50 of the same compound?
The EC50 was greater than 25 µM.
